Data on five compounds can be found in US10722520B2, “Heterocyclic compounds and their use in preventing or treating bacterial infections” (MUTABILIS, priority 2016, dated 2020).

The test system of experiment [1] is E. cloacae P99. Put plainly: MIC of compound alone, broth microdilution. In kind it is cell-based. The settings on record: strain P99, compound alone; for MIC: Enterobacter cloacae, read-out: MIC compounds of the invention alone. Put shortly: (§1)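 Exponential-phase inoculum, 5×10^5 cfu/mL final, in cation-supplemented MHB; 35° C in air for 16-20 h. MIC: lowest concentration giving no visible growth.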
Background: Dilution methods test growth across graded concentrations, often in twofold steps.

Experiment [2] relates to E. coli 190317. Put plainly: MIC of compound alone, broth microdilution. In kind it is cell-based. The conditions noted are these: strain 190317, compound alone; for MIC: Escherichia coli, read-out: MIC compounds of the invention alone. The gist of the method:
as §1

Experiment [3] concerns K. pneumoniae 6299. Put plainly: MIC of compound alone, broth microdilution. It is filed as cell-based. The settings on record: strain 6299, compound alone; for MIC: Klebsiella pneumoniae, read-out: MIC compounds of the invention alone. Put shortly:
as §1

Experiment [4] concerns K. pneumoniae BAA-1898. Put plainly: MIC of compound alone, broth microdilution. The conditions noted are these: strain BAA-1898, compound alone; for MIC: Klebsiella pneumoniae, BAA1898, read-out: MIC compounds of the invention alone. In kind it is cell-based. The gist of the method:
as §1

Experiment [5] has as its system P. aeruginosa CIP107051. The experiment can be described thus: MIC of compound alone, broth microdilution. The settings on record: strain CIP107051, compound alone; for MIC: Pseudomonas aeruginosa, read-out: MIC compounds of the invention alone. In kind it is cell-based. The gist of the method: as §1
In a further experiment the target is CMY-37 (Citrobacter freundii, UniProt P05193). The conditions noted are these: read-out: IC50 β-lactamase CMY-37.
Another experiment addresses AmpC (P99) (Enterobacter cloacae, UniProt P05364). Put plainly: biochemical.
The next experiment addresses AmpC (PAE) (Pseudomonas aeruginosa, UniProt P24735). Put plainly: biochemical.
The target of experiment [6] is T1, OXA-15 (Pseudomonas aeruginosa, UniProt Q51574). The experiment can be described thus: biochemical.
In another experiment the target is TEM-1 (Escherichia coli, UniProt P62593).
The target of the next experiment is SHV-1 (Klebsiella pneumoniae, UniProt P0AD64).
Another experiment has as its target CTX-M-15 (Escherichia coli, UniProt Q9EXV5).
The next experiment deals with KPC-2 (Klebsiella pneumoniae, UniProt Q9F663).
For another experiment, the target named is OXA-1 (Escherichia coli, UniProt P13661).
In a further experiment the target is OXA-11 (Pseudomonas aeruginosa, UniProt Q06778).
The next experiment has as its target OXA-48 (Klebsiella pneumoniae, UniProt Q6XEC0).
Experiment [7] deals with E. cloacae P99. The experiment can be described thus: MIC of ceftazidime (CAZ) at fixed concentration of compound (synergy), broth microdilution. In kind it is cell-based. The conditions noted are these: strain P99; MIC of CAZ, compound fixed at 4 μg/mL. How it is done:
(§2) Log phase bacterial suspensions were adjusted to a final density of 5×10^5 cfu/mL in cation-adjusted Mueller-Hinton broth (Becton-Dickinson) and added to each well (98 μL). Microplates were incubated for 16-20 h at 35° C. in ambient air. The MIC of the compounds was defined as the lowest concentration of said compounds that prevented bacterial growth as read by visual inspection.

Experiment [8] relates to E. coli 190317. The description is as above. It is filed as cell-based. The conditions noted are these: strain 190317; MIC of CAZ, compound fixed at 4 μg/mL. How it is done:
as §2

Experiment [9] deals with K. pneumoniae 6299. The experiment is described as above. In kind it is cell-based. The settings on record: strain 6299; MIC of CAZ, compound fixed at 4 μg/mL. How it is done:
as §2

The test system of experiment [10] is K. pneumoniae BAA-1898. The description is as above. In kind it is cell-based. The settings on record: strain BAA-1898; MIC of CAZ, compound fixed at 4 μg/mL. How it is done: as §2
Experiment [11] concerns P. aeruginosa CIP107051. Described as above. In kind it is cell-based. The conditions noted are these: strain CIP107051; MIC of CAZ, compound fixed at 4 μg/mL. How it is done:
as §2

Experiment [12] addresses T1, OXA-15. The conditions noted are these: read-out: IC50 β-lactamase OXA-15; class (D); nitrocefin 200 μM, 30-min pre-incubation, enzyme 0.4 nM.
Where [13] appears, read: class (C), nitrocefin 200 μM, 30-min pre-incubation, enzyme 0.2 nM.
[14] abbreviates: read-out: IC50 β-lactamase TEM-1, class (A), nitrocefin 200 μM, 30-min pre-incubation, enzyme 0.1 nM.
Where [15] appears, read: read-out: IC50 β-lactamase SHV-1, class (A), nitrocefin 200 μM, 30-min pre-incubation, enzyme 0.075 nM.
Where [16] appears, read: read-out: IC50 β-lactamase CTX-M-15, class (A), nitrocefin 200 μM, 30-min pre-incubation, enzyme 0.4 nM.
The mark [17] stands for this setting: read-out: IC50 β-lactamase KPC-2, class (A), nitrocefin 200 μM, 30-min pre-incubation, enzyme 1 nM.
Setting [18] is: read-out: IC50 β-lactamase OXA-1, class (D), nitrocefin 200 μM, 30-min pre-incubation, enzyme 0.2 nM.
The mark [19] stands for this setting: read-out: IC50 β-lactamase OXA-11, class (D), nitrocefin 200 μM, 30-min pre-incubation, enzyme 1.2 nM.
The mark [20] stands for this setting: read-out: IC50 β-lactamase OXA-48, class (D), nitrocefin 200 μM, 30-min pre-incubation, enzyme 0.3 nM.

Counter-ions that a name gives are not always drawn. Like-named read-outs stand apart in the source and are kept apart here.

As for `O=C(N[C@H]1CCNC1)c1ccn(C2=CC3CN(C2)C(=O)N3OS(=O)(=O)O)n1` (stereo partly drawn) [Example 82, [7-oxo-3-[3-[[(3S)-pyrrolidin-3-yl]carbamoyl]pyrazol-1-yl]-1,6-diazabicyclo[3.2.1]oct-3-en-6-yl]hydrogen sulfate], the minimum inhibitory concentration (MIC) (usually the lowest concentration that inhibits growth of the organism) in the experiment on E. cloacae P99 [1] was 4 µg/mL; in the experiment on E. coli 190317 [2], 2 µg/mL; in the experiment on K. pneumoniae 6299 [3] it was 32 µg/mL; in the experiment with K. pneumoniae BAA-1898 [4] it was 32 µg/mL; with P. aeruginosa CIP107051 [5] it was more than 32 µg/mL. Moreover, the IC50 (as a rule, the concentration that gives 50% inhibition) on CMY-37 (setting [13]) worked out at 61 nM; on AmpC (P99), 32 nM; against AmpC (PAE), 270 nM; against OXA-15 [6], 47 nM; at TEM-1 it was 0.58 nM; against SHV-1, 4.9 nM. The half-maximal inhibitory concentration (IC50) on CTX-M-15 worked out at 0.89 nM; against KPC-2, 10 nM; against OXA-1 it was 110 nM; on OXA-11 it was 22 nM; on OXA-48, 3.2 nM.

Consider `O=C(N[C@@H]1CCNC1)c1ccn(C2=CC3CN(C2)C(=O)N3OS(=O)(=O)O)n1` (stereo partly drawn) [Example 83, [7-oxo-3-[3-[[(3R)-pyrrolidin-3-yl]carbamoyl]pyrazol-1-yl]-1,6-diazabicyclo[3.2.1]oct-3-en-6-yl]hydrogen sulfate], for which the MIC in the experiment on E. cloacae P99 [1] was 8 µg/mL; with E. coli 190317 [2], 2 µg/mL; with K. pneumoniae 6299 [3], 32 µg/mL; in the experiment on K. pneumoniae BAA-1898 [4] it was 8 µg/mL; in the experiment with P. aeruginosa CIP107051 [5], more than 32 µg/mL. Besides, the IC50 at CMY-37 (setting [13]) turned out to be 63 nM; against AmpC (P99), 24 nM; at AmpC (PAE) it was 230 nM; against OXA-15 [6] it was 32 nM; at TEM-1 it was 0.27 nM; against SHV-1, 3.8 nM. For the same compound, the IC50 against CTX-M-15 amounted to 0.64 nM; on KPC-2, 7.9 nM; against OXA-1, 37 nM; against OXA-11, 24 nM; against OXA-48 it was 3.2 nM.

`O=C(Nc1nncs1)c1ccn(C2=CC3CN(C2)C(=O)N3OS(=O)(=O)[O-])n1.[Na+]` (stereo not drawn) [Example 84, sodium [7-oxo-3-[3-(1,3,4-thiadiazol-2-ylcarbamoyl)pyrazol-1-yl]-1,6-diazabicyclo[3.2.1]oct-3-en-6-yl]sulfate]: the MIC in the experiment with E. cloacae P99 [1], in the experiment with E. coli 190317 [2], in the experiment on K. pneumoniae 6299 [3], with K. pneumoniae BAA-1898 [4] and with P. aeruginosa CIP107051 [5] was more than 32 µg/mL each time. Also, the concentration for half-maximal inhibition (IC50) at CMY-37 was found to be 20 nM; against AmpC (P99), 25 nM; on AmpC (PAE) it was 160 nM; against OXA-15 [6], 98 nM; against TEM-1, 0.78 nM; against SHV-1, 2.7 nM. Also, the IC50 amounted to 1 nM against CTX-M-15; 8.5 nM at KPC-2; 150 nM on OXA-1; 22 nM at OXA-11; 7.2 nM against OXA-48.

Consider “sodium (7-oxo-3-(3-(methoxycarbamoyl)-pyrazol-1-yl)-1,6-diazabicyclo[3.2.1]oct-3-en-6-yl) sulfate and sodium (7-oxo-3-(5-(methoxycarbamoyl)-pyrazol-1-yl)-1,6-diazabicyclo[3.2.1]oct-3-en-6-yl) sulfate [Example 27]”, for which the “MIC compounds of the invention alone” value was 16 µg/mL in the experiment with E. cloacae P99 [1]; 8 µg/mL with E. coli 190317 [2]; 32 µg/mL in the experiment on K. pneumoniae 6299 [3]; 32 µg/mL in the experiment with K. pneumoniae BAA-1898 [4]; more than 32 µg/mL in the experiment with P. aeruginosa CIP107051 [5]. The “MIC combination of CAZ and compounds of the invention at 4 μg/mL” value with E. cloacae P99 [7] was found to be 2 µg/mL; in the experiment on E. coli 190317 [8], 0.25 µg/mL; with K. pneumoniae 6299 [9] it was 0.5 µg/mL; in the experiment on K. pneumoniae BAA-1898 [10], 16 µg/mL; with P. aeruginosa CIP107051 [11], 16 µg/mL. Also, the half-maximal inhibitory concentration (IC50) on OXA-15 [12] amounted to 110 nM; at TEM-1 (setting [14]) it was 1.1 nM; on SHV-1 (setting [15]), 4.8 nM; at CTX-M-15 (setting [16]), 1.2 nM; on KPC-2 (setting [17]), 10 nM; at OXA-1 (setting [18]), 130 nM. For the same compound, the IC50 on OXA-11 (setting [19]) came to 69 nM; at OXA-48 (setting [20]) it was 6.1 nM.

For the compound “sodium [3-[3-[2-[tert-butyl(dimethyl)silyl]oxyethyl]pyrazol-1-yl]-7-oxo-1,6-diazabicyclo[3.2.1]oct-3-en-6-yl]sulfate [Example 69]”, the “MIC compounds of the invention alone” value in the experiment with E. cloacae P99 [1] was 32 µg/mL; in the experiment on E. coli 190317 [2] it was 4 µg/mL; in the experiment with K. pneumoniae 6299 [3] it was 32 µg/mL; with K. pneumoniae BAA-1898 [4], 32 µg/mL; with P. aeruginosa CIP107051 [5], more than 32 µg/mL. The “MIC combination of CAZ and compounds of the invention at 4 μg/mL” value in the experiment on E. cloacae P99 [7] is 1 µg/mL; with E. coli 190317 [8], not above 0.25 µg/mL; with K. pneumoniae 6299 [9], 1 µg/mL; with K. pneumoniae BAA-1898 [10], 64 µg/mL; with P. aeruginosa CIP107051 [11], 8 µg/mL. Moreover, the IC50 on OXA-15 [12] came to 230 nM; at TEM-1 (setting [14]), 0.61 nM; on SHV-1 (setting [15]), 2.3 nM; at CTX-M-15 (setting [16]) it was 0.95 nM; at KPC-2 (setting [17]), 32 nM; at OXA-1 (setting [18]) it was 310 nM. Moreover, the IC50 on OXA-11 (setting [19]) turned out to be 120 nM; at OXA-48 (setting [20]) it was 14 nM.
